In patent US20210292347A1, “DIHETEROCYCLIC TRIAZINONE NUCLEOSIDE ANALOGS AND THEIR USE FOR MEDICATION” (priority 2020, published 2021):

System: mice sarcoma S180
Assay: Growth inhibition of S180 sarcoma in mice
Type: in vivo, Kunming healthy mice
Settings: for in-vivo anti-tumor efficacy, statistical significance (in words): S180 sarcoma in mice, doses and routes of Table 3
[1] = Mus musculus, S-180, mice, ip, read-out: Inhibition rate (%) S180 sarcoma
[2] = Mus musculus, S-180, mice, iv, read-out: Inhibition rate (%) S180 sarcoma

N#Cc1nn(C(N)=S)c2c(=O)n(C3OC(CO)C(O)C3O)nnc12 (stereo not shown) [Example 77, 7-cyano-3-(3,4-dihydroxy-5-(hydroxymethyl)tetrahydrofuran-2-yl)-4-oxo-3H-pyrazolo[4,3-d][1,2,3]triazine-5(4H)-carbothioamide] was tested, and the inhibition in vivo at 100 mg/kg [1] was < 40% and the “in-vivo anti-tumor efficacy, statistical significance (in words)” value was “statistically significant”.
With CCCc1nn(O)c2c(=O)n(C3CCC(CO)O3)nnc12 (stereo not shown) [Example 79, 5-hydroxy-3-(5-(hydroxymethyl)tetrahydrofuran-2-yl)-7-propyl-3H-pyrazolo[4,3-d][1,2,3]triazin-4(5H)-one] the inhibition in vivo at 300 mg/kg [1] was < 20%.
CCCc1nn(C)c2c(=O)n(C3CCC(CO)O3)nnc12 (stereo not shown) [Example 80, 3-(5-(hydroxymethyl)tetrahydrofuran-2-yl)-5-methyl-7-propyl-3H-pyrazolo[4,3-d][1,2,3]triazin-4(5H)-one] was tested, and the inhibition in vivo at 200 mg/kg [1] was < 20%.
With CCOP(=O)(OCC)C(Nc1nn(CO)c2c(=O)n(C3CCC(CO)O3)nnc12)C(=O)O (stereo not shown) [Example 81, 2-(diethoxyphosphoryl)-2-((5-(hydroxymethyl)-3-(5-(hydroxymethyl)tetrahydrofuran-2-yl)-4-oxo-4,5-dihydro-3H-pyrazolo[4,3-d][1,2,3]triazin-7-yl)amino)acetic acid] the inhibition in vivo at 100 mg/kg [1] was < 40% and the “in-vivo anti-tumor efficacy, statistical significance (in words)” value was “statistically significant”.
For CCOP(=O)(OCC)C(C(=O)O)n1nc(N)c2nnn(C3CCC(CO)O3)c(=O)c21 (stereo not shown) [Example 83, 2-(7-amino-3-(5-(hydroxymethyl)tetrahydrofuran-2-yl)-4-oxo-3H-pyrazolo[4,3-d][1,2,3]triazin-5(4H)-yl)-2-(diethoxyphosphoryl)acetic acid], the inhibition in vivo at 20 mg/kg (Mus musculus, S-180, mice, iv, 20 mg/kg, read-out: Inhibition rate (%) S180 sarcoma) was < 20%.
CCCc1nn(C(=N)N)c2c(=O)n(C3CCC(CO)O3)nnc12 (stereo not shown) [Example 85, 3-(5-(hydroxymethyl)tetrahydrofuran-2-yl)-4-oxo-7-propyl-3H-pyrazolo[4,3-d][1,2,3]triazine-5(4H)-carboximidamide] was tested, and the inhibition in vivo at 400 mg/kg [1] was < 20%.
For CCCc1nn(C(N)=S)c2c(=O)n(C3CCC(CO)O3)nnc12 (stereo not shown) [Example 86, 3-(5-(hydroxymethyl)tetrahydrofuran-2-yl)-4-oxo-7-propyl-3H-pyrazolo[4,3-d][1,2,3]triazine-5(4H)-carbothioamide], the inhibition in vivo at 200 mg/kg [1] was < 20%.
CCCc1nn(O)c2c(=O)n(C3CSC(CO)O3)nnc12 (stereo not shown) [Example 88, 5-hydroxy-3-(2-(hydroxymethyl)-1,3-oxathiolan-5-yl)-7-propyl-3H-pyrazolo[4,3-d][1,2,3]triazin-4(5H)-one] was tested, and the inhibition in vivo at 400 mg/kg [1] was < 40% and the “in-vivo anti-tumor efficacy, statistical significance (in words)” value was “statistically significant”.
In the case of CCOP(=O)(OCC)C(Nc1nn(C)c2c(=O)n(C3CSC(CO)O3)nnc12)C(=O)O (stereo not shown) [Example 90, 2-(diethoxyphosphoryl)-2-((3-(2-(hydroxymethyl)-1,3-oxathiolan-5-yl)-5-methyl-4-oxo-4,5-dihydro-3H-pyrazolo[4,3-d][1,2,3]triazin-7-yl)amino)acetic acid], the inhibition in vivo at 30 mg/kg [2] is reported as < 20%.
CCCc1nn(C)c2c(=O)n(C3CSC(CO)O3)nnc12 (stereo not shown) [Example 91, 3-(2-(hydroxymethyl)-1,3-oxathiolan-5-yl)-5-methyl-7-propyl-3H-pyrazolo[4,3-d][1,2,3]triazin-4(5H)-one] was tested, and the inhibition in vivo at 200 mg/kg [1] was < 40% and the “in-vivo anti-tumor efficacy, statistical significance (in words)” value was “statistically significant”.
In the case of CCCc1nn(CO)c2c(=O)n(C3CSC(CO)O3)nnc12 (stereo not shown) [Example 94, 5-(hydroxymethyl)-3-(2-(hydroxymethyl)-1,3-oxathiolan-5-yl)-7-propyl-3H-pyrazolo[4,3-d][1,2,3]triazin-4(5H)-one], the inhibition in vivo at 30 mg/kg [2] is reported as < 40% and the “in-vivo anti-tumor efficacy, statistical significance (in words)” value is reported as “statistically significant”.
For CCCc1nn(CC(N)=O)c2c(=O)n(C3CSC(CO)O3)nnc12 (stereo not shown) [Example 95, 2-(3-(2-(hydroxymethyl)-1,3-oxathiolan-5-yl)-4-oxo-7-propyl-3H-pyrazolo[4,3-d][1,2,3]triazin-5(4H)-yl)acetamide], the inhibition in vivo at 50 mg/kg [2] was < 40% and the “in-vivo anti-tumor efficacy, statistical significance (in words)” value was “statistically significant”.
In the case of CCCc1nn(C(N)=O)c2c(=O)n(C3CSC(CO)O3)nnc12 (stereo not shown) [Example 97, 3-(2-(hydroxymethyl)-1,3-oxathiolan-5-yl)-4-oxo-7-propyl-3H-pyrazolo[4,3-d][1,2,3]triazine-5(4H)-carboxamide], the inhibition in vivo at 100 mg/kg [1] is reported as < 40% and the “in-vivo anti-tumor efficacy, statistical significance (in words)” value is reported as “statistically significant”.
In the case of NC(=O)n1nc(N)c2nnn(C3CSC(CO)O3)c(=O)c21 (stereo not shown) [Example 98, 7-amino-3-(2-(hydroxymethyl)-1,3-oxathiolan-5-yl)-4-oxo-3H-pyrazolo[4,3-d][1,2,3]triazine-5(4H)-carboxamide], the inhibition in vivo at 70 mg/kg (Mus musculus, S-180, mice, ip, 70 mg/kg, read-out: Inhibition rate (%) S180 sarcoma) is reported as < 20%.
With CN(C)CCC(=O)Nc1nn(C(N)=O)c2c(=O)n(C3CSC(CO)O3)nnc12 (stereo not shown) [Example 99, 7-(3-(dimethylamino)propanamido)-3-(2-(hydroxymethyl)-1,3-oxathiolan-5-yl)-4-oxo-3H-pyrazolo[4,3-d][1,2,3]triazine-5(4H)-carboxamide] the inhibition in vivo at 150 mg/kg (Mus musculus, S-180, mice, ip, 150 mg/kg, read-out: Inhibition rate (%) S180 sarcoma) was < 20%.
With CCCc1nn(C(=N)N)c2c(=O)n(C3CSC(CO)O3)nnc12 (stereo not shown) [Example 100, 3-(2-(hydroxymethyl)-1,3-oxathiolan-5-yl)-4-oxo-7-propyl-3H-pyrazolo[4,3-d][1,2,3]triazine-5(4H)-carboximidamide] the inhibition in vivo at 100 mg/kg [1] was < 40% and the “in-vivo anti-tumor efficacy, statistical significance (in words)” value was “statistically significant”.
For CCCc1nn(O)c2c(=O)n(C3OC(COC(C(=O)O)P(=O)(NC(C)C)NC(C)C)C(O)C3O)nnc12 (stereo not shown) [Example 103, 2-(bis(isopropylamino)phosphoryl)-2-((3,4-dihydroxy-5-(5-hydroxy-4-oxo-7-propyl-4,5-dihydro-3H-pyrazolo[4,3-d][1,2,3]triazin-3-yl)tetrahydrofuran-2-yl)methoxy)acetic acid], the inhibition in vivo at 100 mg/kg [1] was < 20%.
With CCCc1nn(C)c2c(=O)n(C3OC(COC(C(=O)O)P(=O)(NC(C)C)NC(C)C)C(O)C3O)nnc12 (stereo not shown) [Example 106, 2-(bis(isopropylamino)phosphoryl)-2-((3,4-dihydroxy-5-(5-methyl-4-oxo-7-propyl-4,5-dihydro-3H-pyrazolo [4,3-d][1,2,3]triazin-3-yl)tetrahydrofuran-2-yl)methoxy)acetic acid] the inhibition in vivo at 50 mg/kg [2] was < 20%.
With CCCc1nn(O)c2c(=O)n(C3OC(COC(C(=O)O)P(NC(C)C)OCC#N)C(O)C3O)nnc12 (stereo not shown) [Example 117, 2-((cyanomethoxy)(isopropylamino)phosphino)-2-((3,4-dihydroxy-5-(5-hydroxy-4-oxo-7-propyl-4,5-dihydro-3H-pyrazolo [4,3-d][1,2,3]triazin-3-yl)tetrahydrofuran-2-yl)methoxy)acetic acid] the inhibition in vivo at 15 mg/kg (Mus musculus, S-180, mice, iv, 15 mg/kg, read-out: Inhibition rate (%) S180 sarcoma) was < 40% and the “in-vivo anti-tumor efficacy, statistical significance (in words)” value was “statistically significant”.
For CCCc1nn(C)c2c(=O)n(C3OC(COC(C(=O)O)P(NC(C)C)OCC#N)C(O)C3O)nnc12 (stereo not shown) [Example 120, 2-((cyanomethoxy)(isopropylamino)phosphino)-2-((3,4-dihydroxy-5-(5-methyl-4-oxo-7-propyl-4,5-dihydro-3H-pyrazolo[4,3-d][1,2,3]triazin-3-yl)tetrahydrofuran-2-yl)methoxy)acetic acid], the inhibition in vivo at 12.5 mg/kg (Mus musculus, S-180, mice, iv, 12.5 mg/kg, read-out: Inhibition rate (%) S180 sarcoma) was < 40% and the “in-vivo anti-tumor efficacy, statistical significance (in words)” value was “statistically significant”.
With CCCc1nn(C)c2c(=O)n(COC(CO)CO)nnc12 [Example 126, 3-(((1,3-dihydroxypropan-2-yl)oxy)methyl)-5-methyl-7-propyl-3H-pyrazolo[4,3-d][1,2,3]triazin-4(5H)-one] the inhibition in vivo at 50 mg/kg [2] was < 20%.
In the case of CN(C)CCC(=O)Nc1nn(CC(N)=O)c2c(=O)n(COC(CO)CO)nnc12 [Example 129, N-(5-(2-amino-2-oxoethyl)-3-(((1,3-dihydroxypropan-2-yl)oxy)methyl)-4-oxo-4,5-dihydro-3H-pyrazolo[4,3-d][1,2,3]triazin-7-yl)-3-(dimethylamino) propanamide], the inhibition in vivo at 100 mg/kg [1] is reported as < 20%.
With CCCc1nn(C(=N)N)c2c(=O)n(C3OC(COP(=O)(O)OP(=O)(O)OP(=O)(O)O)C(O)C3O)nnc12 (stereo not shown) [Example 140, (5-(5-carbamimidoyl-4-oxo-7-propyl-4,5-dihydro-3H-pyrazolo[4,3-d][1,2,3]triazin-3-yl)-3,4-dihydroxytetrahydrofuran-2-yl)methyl tetrahydrogen triphosphate] the inhibition in vivo at 200 mg/kg [1] was < 20%.
In the case of CCCn1nnc2nnn(C3OC(CO)C(O)C3O)c(=O)c21 (stereo not shown) [Example 147, 6-(3,4-dihydroxy-5-(hydroxymethyl)tetrahydrofuran-2-yl)-1-propyl-1H-[1,2,3]triazolo[4,5-d][1,2,3]triazin-7(6H)-one], the inhibition in vivo at 300 mg/kg [1] is reported as < 20%.
For O=c1c2c(nnn1C1OC(CO)C(O)C1O)nnn2CO (stereo not shown) [Example 148, 6-(3,4-dihydroxy-5-(hydroxymethyl)tetrahydrofuran-2-yl)-1-(hydroxymethyl)-1H-[1,2,3]triazolo[4,5-d][1,2,3]triazin-7(6H)-one], the inhibition in vivo at 200 mg/kg [1] was < 20%.
For CCCn1nnc2c(=O)n(C3OC(CO)C(O)C3O)nnc21 (stereo not shown) [Example 151, 6-(3,4-dihydroxy-5-(hydroxymethyl)tetrahydrofuran-2-yl)-3-propyl-3H-[1,2,3]triazolo[4,5-d][1,2,3]triazin-7(6H)-one], the inhibition in vivo at 200 mg/kg [1] was < 20%.
In the case of O=c1c2nnn(CO)c2nnn1C1OC(CO)C(O)C1O (stereo not shown) [Example 152, 6-(3,4-dihydroxy-5-(hydroxymethyl)tetrahydrofuran-2-yl)-3-(hydroxymethyl)-3H-[1,2,3]triazolo[4,5-d][1,2,3]triazin-7(6H)-one], the inhibition in vivo at 400 mg/kg [1] is reported as < 20%.
